In the supplement of paper PMC11451515:

Assays:
Conditions in all cases: 48 h
[1] = tested on: NOMO1; experiment: AUC of viability dose-response curve (% viability x log10 dose units); higher = less sensitive
In short: (§1)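 Viability of medium-adapted leukemia cells was measured by CellTiter-Glo One luminescence after 48 h at 37°C with library compounds in DMSO. Doses were 11 threefold steps from 47 μM to 0.79 nM, in 1536-well plates at 500 or 1000 cells/well. Signals were normalised per plate to DMSO and cell-free wells and fitted with a four-parameter log-logistic model on log10 dose. Area under the curve was integrated by trapezoidal rule, with curves exceeding full viability scaled and failed quality-control curves removed.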

[2] = tested on: SEM cells; experiment: as above
In short: as §1

[3] = tested on: P12-Ichikawa; experiment: as above
In short: as §1

[4] = tested on: SEM cells; experiment: cell viability relative to DMSO control; higher = less cytotoxic
In short: (§2)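 Library compounds in DMSO were pin-dosed in an 11-point threefold series (47 μM to 0.79 nM) onto leukemia cells in 1536-well plates (5 μl). Plates held 500 cells/well of NOMO1 or SEM or 1000 cells/well of P12-Ichikawa, each adapted for at least four passages in each medium. Luminescence was read with CellTiter-Glo One after 48 h at 37°C. Viability means the per-plate percentage relative to DMSO wells, using cell-free wells as background.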

[5] = tested on: P12-Ichikawa; experiment: as above
In short: as §2

C\C1=N\N(C(=O)C1)C2=CC=CC=C2
AUC of viability dose-response curve
Conditions | [1] | [2] | [3]
HPLM + 10% dialyzed FBS | 467 | 465 | 471
RPMI 5 mM glucose + 10% FBS | 467 | 465 | 458
RPMI 5 mM glucose + 10% dialyzed FBS | 462 | 473 | 473

cell viability [%], [4]
Conditions | HPLM + 10% dialyzed FBS | RPMI 5 mM glucose + 10% FBS
0.000781 µM | 102 | 113
0.00234 µM | 104 | 121
0.00702 µM | 121 | 129
0.0211 µM | 136 | 119
0.0632 µM | 130 | 130
0.19 µM | 121 | 117
0.569 µM | 112 | 121
1.71 µM | 130 | 123
5.12 µM | 121 | 132
15.4 µM | 118 | 130
46.1 µM | 111 | 117

Clc1ccc2c(N3CCN(CCCN4CCN(c5ccnc6cc(Cl)ccc56)CC4)CC3)ccnc2c1
AUC of viability dose-response curve
Conditions | [1] | [2] | [3]
HPLM + 10% dialyzed FBS | 469 | 464 | 456
RPMI 5 mM glucose + 10% FBS | 457 | 459 | 448
RPMI 5 mM glucose + 10% dialyzed FBS | 465 | 459 | 442

cell viability [%], [4]
Conditions | HPLM + 10% dialyzed FBS | RPMI 5 mM glucose + 10% dialyzed FBS
0.000781 µM | 96.6 | 118
0.00234 µM | 111 | 131
0.00702 µM | 125 | 112
0.0211 µM | 102 | 120
0.0632 µM | 120 | 119
0.19 µM | 120 | 128
0.569 µM | 135 | 134
1.71 µM | 130 | 146
5.12 µM | 133 | 130
15.4 µM | 102 | 109
46.1 µM | 84.5 | 69.9

CC(=O)NC(C)c1ccc(Oc2ccc(OC(C)C)cc2)cc1 (configuration not stated)
AUC of viability dose-response curve
Conditions | HPLM + 10% dialyzed FBS | RPMI 5 mM glucose + 10% FBS | RPMI 5 mM glucose + 10% dialyzed FBS
[2] | 469 | 438 | 449
[3] | 454 | 440 | 450

CC/C(=C(/CC)c1ccc(O)cc1)c1ccc(O)cc1
AUC of viability dose-response curve
Conditions | [1] | [2] | [3]
HPLM + 10% dialyzed FBS | 442 | 473 | 463
RPMI 5 mM glucose + 10% FBS | 465 | 460 | 457
RPMI 5 mM glucose + 10% dialyzed FBS | 429 | 421 | 436

C/C(=C\C(=O)Nc1ccccc1C(=O)O)c1ccc2ccccc2c1
AUC of viability dose-response curve
Conditions | HPLM + 10% dialyzed FBS | RPMI 5 mM glucose + 10% FBS | RPMI 5 mM glucose + 10% dialyzed FBS
[2] | 435 | 447 | 463
[3] | 461 | 461 | 456

CC(CCc1ccc(O)cc1)NCCc1ccc(O)c(O)c1 (configuration not stated)
AUC of viability dose-response curve
Conditions | [1] | [2] | [3]
HPLM + 10% dialyzed FBS | 463 | 436 | 441
RPMI 5 mM glucose + 10% FBS | 461 | 415 | 450
RPMI 5 mM glucose + 10% dialyzed FBS | 452 | 439 | 453

[4], HPLM + 10% dialyzed FBS
Conditions | cell viability [%]
0.000781 µM | 117
0.00234 µM | 113
0.00702 µM | 138
0.0211 µM | 145
0.0632 µM | 133
0.19 µM | 141
0.569 µM | 132
1.71 µM | 128
5.12 µM | 114
15.4 µM | 90.5
46.1 µM | 19.8

CC(C)C[C@@H](N)[C@H](O)C(=O)N[C@H](C(=O)N[C@H](C(=O)N[C@@H](CC(=O)O)C(=O)O)C(C)C)C(C)C
AUC of viability dose-response curve
Conditions | [1] | [2] | [3]
HPLM + 10% dialyzed FBS | 455 | 465 | 468
RPMI 5 mM glucose + 10% FBS | 462 | 446 | 433
RPMI 5 mM glucose + 10% dialyzed FBS | 463 | 477 | 450

CCCCc1oc2ccccc2c1C(=O)c1cc(I)c(OCCN(CC)CC)c(I)c1
AUC of viability dose-response curve
Conditions | [1] | [2] | [3]
HPLM + 10% dialyzed FBS | 442 | 458 | 451
RPMI 5 mM glucose + 10% FBS | 450 | 465 | 448
RPMI 5 mM glucose + 10% dialyzed FBS | 457 | 454 | 463

cell viability [%]
Conditions | HPLM + 10% dialyzed FBS | RPMI 5 mM glucose + 10% FBS | RPMI 5 mM glucose + 10% dialyzed FBS
[4], 0.000781 µM | – | 108 | –
[4], 0.00234 µM | – | 116 | –
[4], 0.00702 µM | – | 132 | –
[4], 0.0211 µM | – | 136 | –
[4], 0.0632 µM | – | 115 | –
[4], 0.19 µM | – | 113 | –
[4], 0.569 µM | – | 136 | –
[4], 1.71 µM | – | 116 | –
[4], 5.12 µM | – | 119 | –
[4], 15.4 µM | – | 107 | –
[4], 46.1 µM | – | 97.6 | –
[5], 0.000781 µM | 114 | – | 106
[5], 0.00234 µM | 114 | – | 114
[5], 0.00702 µM | 113 | – | 115
[5], 0.0211 µM | 109 | – | 114
[5], 0.0632 µM | 115 | – | 111
[5], 0.19 µM | 102 | – | 107
[5], 0.569 µM | 110 | – | 116
[5], 1.71 µM | 104 | – | 106
[5], 5.12 µM | 104 | – | 103
[5], 15.4 µM | 104 | – | 103
[5], 46.1 µM | 91.1 | – | 94.5

Cc1ccc(C(N)=O)cc1Nc1nccc(-c2cn(C(C)C)c3cnccc23)n1
AUC of viability dose-response curve
Conditions | HPLM + 10% dialyzed FBS | RPMI 5 mM glucose + 10% FBS | RPMI 5 mM glucose + 10% dialyzed FBS
[2] | 356 | 342 | 326
[3] | 463 | 459 | 451

cell viability [%], [4]
Conditions | HPLM + 10% dialyzed FBS | RPMI 5 mM glucose + 10% dialyzed FBS
0.000781 µM | 99 | 109
0.00234 µM | 118 | 128
0.00702 µM | 113 | 124
0.0211 µM | 111 | 113
0.0632 µM | 100 | 113
0.19 µM | 88 | 87.3
0.569 µM | 75 | 64.1
1.71 µM | 80 | 71
5.12 µM | 61.4 | 52.5
15.4 µM | 29 | 34.8
46.1 µM | 16.7 | 12.7

COc1cc(Oc2ccnc3cc(OC)c(OC)cc23)ccc1NC(=O)NC(C)c1nccs1 (configuration not stated)
AUC of viability dose-response curve
Conditions | [1] | [2] | [3]
HPLM + 10% dialyzed FBS | 444 | 453 | 449
RPMI 5 mM glucose + 10% FBS | 463 | 440 | 446
RPMI 5 mM glucose + 10% dialyzed FBS | 462 | 439 | 450

C[C@H]1CN(C[C@@H](C)N1)C2=C(F)C3=C(C(=C2F)N)C(=O)\C(=C/N3C4CC4)C(O)=O
AUC of viability dose-response curve
Conditions | [1] | [2] | [3]
HPLM + 10% dialyzed FBS | 422 | 424 | 448
RPMI 5 mM glucose + 10% FBS | 466 | 423 | 441
RPMI 5 mM glucose + 10% dialyzed FBS | 446 | 425 | 430

cell viability [%], [4]
Conditions | HPLM + 10% dialyzed FBS | RPMI 5 mM glucose + 10% dialyzed FBS
0.000781 µM | 108 | 119
0.00234 µM | 112 | 122
0.00702 µM | 130 | 134
0.0211 µM | 122 | 114
0.0632 µM | 109 | 109
0.19 µM | 115 | 124
0.569 µM | 107 | 118
1.71 µM | 91.4 | 95.3
5.12 µM | 95.9 | 96.3
15.4 µM | 86.4 | 88.7
46.1 µM | 60.1 | 56.9
